In ChEMBL document CHEMBL3044913, “Synthesis, in vitro cytotoxicity, and antibacterial studies of new asymmetric bis-1,2,4-triazoles” (Med Chem Res, 2013):
≈ marks a conversion by molar mass, not a printed value.

What was measured:
Staphylococcus aureus [1] = experiment: Antibacterial activity against Staphylococcus aureus ATCC 25923 assessed as diameter of growth inhibition zone at 100 ug/ml after 24 hr by cup-plate method; assay type: functional; conditions: ATCC 25923, 24 h, read-out: DIZ
Bacillus subtilis [2] = experiment: Antibacterial activity against Bacillus subtilis ATCC 6633 assessed as growth inhibition after 24 hr by two-fold serial dilution method; assay type: functional; conditions: ATCC 6633, 24 h
[3] = Cytotoxicity against Homo sapiens (human) MDA231 cells assessed as inhibition of cell growth after 48 hr by MTT assay; assay type: functional, cell-based; conditions: MDA-MB-231, 48 h
Escherichia coli [4] = experiment: Antibacterial activity against Escherichia coli ATCC 25922 assessed as diameter of growth inhibition zone at 100 ug/ml after 24 hr by cup-plate method; assay type: functional; conditions: ATCC 25922, 24 h, read-out: DIZ
[5] = test system: Radical scavenging activity; experiment: Antioxidant activity assessed as DPPH radical scavenging activity at 40 ug/ml after 30 min; assay type: functional
Pseudomonas aeruginosa [6] = experiment: Antibacterial activity against Pseudomonas aeruginosa ATCC 27853 assessed as growth inhibition after 24 hr by two-fold serial dilution method; assay type: functional; conditions: ATCC 27853, 24 h
HT-29 = experiment: Cytotoxicity against Homo sapiens (human) HT-29 cells assessed as inhibition of cell growth after 48 hr by MTT assay; assay type: functional, cell-based; conditions: HT-29, 48 h
Staphylococcus aureus [7] = experiment: Antibacterial activity against Staphylococcus aureus ATCC 25923 assessed as growth inhibition after 24 hr by two-fold serial dilution method; assay type: functional; conditions: ATCC 25923, 24 h
Pseudomonas aeruginosa [8] = experiment: Antibacterial activity against Pseudomonas aeruginosa ATCC 27853 assessed as diameter of growth inhibition zone at 100 ug/ml after 24 hr by cup-plate method; assay type: functional; conditions: ATCC 27853, 24 h, read-out: DIZ
Bacillus subtilis [9] = experiment: Antibacterial activity against Bacillus subtilis ATCC 6633 assessed as diameter of growth inhibition zone at 100 ug/ml after 24 hr by cup plate method; assay type: functional; conditions: ATCC 6633, 24 h, read-out: DIZ
Escherichia coli [10] = experiment: Antibacterial activity against Escherichia coli ATCC 25922 assessed as growth inhibition after 24 hr by two-fold serial dilution method; assay type: functional; conditions: ATCC 25922, 24 h

| SMILES | zone of inhibition at 100 µg/mL (Staphylococcus aureus [1]) [mm] | MIC (Bacillus subtilis [2]) [µg/mL] | IC50 [3] [µM] | zone of inhibition at 100 µg/mL (Escherichia coli [4]) [mm] | Activity [5] [%] | MIC (Pseudomonas aeruginosa [6]) [µg/mL] | IC50 (HT-29) [µM] | MIC (Staphylococcus aureus [7]) [µg/mL] | zone of inhibition at 100 µg/mL (Pseudomonas aeruginosa [8]) [mm] | zone of inhibition at 100 µg/mL (Bacillus subtilis [9]) [mm] | MIC (Escherichia coli [10]) [µg/mL] |
| --- | --- | --- | --- | --- | --- | --- | --- | --- | --- | --- | --- |
| Fc1ccc(-n2c(S)nnc2Sc2nnc(-c3ccccc3)n2-c2ccccc2)cc1 | 16 | 25 (≈ 56 µM) | 29.7 | 16 | 60 | 50 (≈ 112 µM) | 32.8 | 25 (≈ 56 µM) | 16 | 16 | 50 (≈ 112 µM) |
| COc1ccc(-n2c(S)nnc2Sc2nnc(-c3ccccc3)n2-c2ccccc2)cc1 | 5 | 100 (≈ 218 µM) |  | 5 | 28 | 100 (≈ 218 µM) |  | 100 (≈ 218 µM) | 5 | 5 | 100 (≈ 218 µM) |
| CC(C)n1c(S)nnc1Sc1nnc(-c2ccccc2)n1-c1ccccc1 | 5 | 100 (≈ 253 µM) |  | 5 | 39 | 100 (≈ 253 µM) |  | 100 (≈ 253 µM) | 5 | 5 | 100 (≈ 253 µM) |
| Sc1nnc(CSc2nnc(-c3ccccc3)n2-c2ccccc2)n1-c1ccc(Cl)cc1 | 16 | 25 (≈ 52.4 µM) | 50.3 | 16 | 65 | 100 (≈ 210 µM) | 36.6 | 50 (≈ 105 µM) | 16 | 16 | 50 (≈ 105 µM) |
| O=c1[nH]cc(F)c(=O)[nH]1 [FLUOROURACIL] |  |  | 2.72 |  |  |  | 3.24 |  |  |  |  |
| Sc1nnc(CSc2nnc(-c3ccccc3)n2-c2ccccc2)n1-c1ccccc1 | 16 | 12.5 (≈ 28.2 µM) | 8.57 | 16 | 85 | 50 (≈ 113 µM) | 5.49 | 12.5 (≈ 28.2 µM) | 16 | 16 | 25 (≈ 56.5 µM) |
| COc1ccc(-n2c(S)nnc2CSc2nnc(-c3ccccc3)n2-c2ccccc2)cc1 | 21 | 50 (≈ 106 µM) | 29.2 | 21 | 63 | 100 (≈ 212 µM) | 27.7 | 25 (≈ 52.9 µM) | 21 | 21 | 50 (≈ 106 µM) |
| CC1(C)S[C@@H]2[C@H](NC(=O)[C@H](N)c3ccccc3)C(=O)N2[C@H]1C(=O)O [AMPICILLIN] | 28 | < 6.25 |  | 28 |  | < 6.25 |  | < 6.25 | 28 | 28 | < 6.25 |
| CCOc1ccc(-n2c(S)nnc2CSc2nnc(-c3ccccc3)n2-c2ccccc2)cc1 | 5 | 100 (≈ 205 µM) |  | 5 | 34 | 100 (≈ 205 µM) |  | 100 (≈ 205 µM) | 5 | 5 | 100 (≈ 205 µM) |
| Sc1nnc(Sc2nnc(-c3ccccc3)n2-c2ccccc2)n1-c1ccc(Cl)cc1 | 16 | 25 (≈ 54 µM) | 49.7 | 16 | 64 | 25 (≈ 54 µM) | 38.4 | 12.5 (≈ 27 µM) | 16 | 16 | 12.5 (≈ 27 µM) |
| Sc1nnc(Sc2nnc(-c3ccccc3)n2-c2ccccc2)n1-c1ccccc1 | 5 | 100 (≈ 233 µM) | 34.6 | 5 | 63 | 100 (≈ 233 µM) | 28.3 | 100 (≈ 233 µM) | 5 | 5 | 100 (≈ 233 µM) |
| Fc1ccc(-n2c(S)nnc2CSc2nnc(-c3ccccc3)n2-c2ccccc2)cc1 | 21 | 12.5 (≈ 27.1 µM) | 26.8 | 21 | 72 | 12.5 (≈ 27.1 µM) | 16.7 | 25 (≈ 54.3 µM) | 21 | 21 | 25 (≈ 54.3 µM) |
| CC(C)n1c(S)nnc1CSc1nnc(-c2ccccc2)n1-c1ccccc1 | 5 | 100 (≈ 245 µM) |  | 5 | 42 | 100 (≈ 245 µM) |  | 100 (≈ 245 µM) | 5 | 5 | 100 (≈ 245 µM) |
| O=C1O[C@H]([C@@H](O)CO)C(O)=C1O |  |  |  |  | 94 |  |  |  |  |  |  |
| CCOc1ccc(-n2c(S)nnc2Sc2nnc(-c3ccccc3)n2-c2ccccc2)cc1 | 5 | 100 (≈ 212 µM) | 43.9 | 5 | 59 | 100 (≈ 212 µM) | 46.8 | 100 (≈ 212 µM) | 5 | 5 | 100 (≈ 212 µM) |
